Assay results published in ChEMBL document CHEMBL1128116, “Synthesis and resolution of -(aminomethyl)-4-chlorobenzeneethanesulfinic acid a potent gabaB receptor ligand” (Bioorg Med Chem Lett, 1995).

Columns and labels:
Cavia porcellus = species on record: Cavia porcellus; experiment: In vitro inhibition against electrical field stimulated neuronal cholinergic contractions of guinea pig trachea; assay type: functional
[1] = Inhibitory activity against Gamma-aminobutyric acid A (GABA-A) receptor; set-up: species or system Rattus norvegicus

SMILES | IC30 (Cavia porcellus) | IC30 (Cavia porcellus; Cavia porcellus, Trachea, read-out: IC30) | IC50 [1]
NCC(CS(=O)O)c1ccc(Cl)cc1 (single isomer, unassigned; (-)) | 13.9 µM |  | 
NCC(CS(=O)O)c1ccc(Cl)cc1 (racemic) |  | 22 µM | > 100 µM
